Entries after “also recorded” stand apart in the source; their conditions may differ.
Legend:
[1] = Plasma pharmacokinetics of L-DOPA and dopamine after intranasal dosing; conditions: rat, 1.2 mg/kg
[2] = after intranasal L-DOPA administration, Nedorubov et al; cited from earlier work
[3] = Brain levels of L-DOPA and dopamine after intranasal dosing; conditions: rat, 1.2 mg/kg, 2 hours post-dosing
Description: All brain levels are reported after subtraction of basal levels.

## N[C@@H](Cc1ccc(O)c(O)c1)C(=O)O [crystal L-DOPA, levodopa]
[1]; GCPQ-L-DOPA: one rat, t=0.083 hours
  dopamine plasma concentration, single animals with a quantifiable value: 25 to 29 ng/mL
[1]; limit of quantification 25 ng/ml, nearly all samples
  dopamine plasma concentration: below the limit of quantification
[1]; plasma
  maximum plasma concentration of L-DOPA: 53.5 ± 22.7 ng/mL
  time of maximum L-DOPA plasma concentration (Tmax): 15 min
[2]
  Cmax for L-DOPA in rat brain tissue: 16.94±1.52
[3]
  dopamine levels in the brain above basal levels (in words): below the LOQ; also recorded: below the level of detection
